The results in this text go back to ChEMBL document CHEMBL3632551, “Kynurenine Monooxygenase (KMO) Inhibitors for the Treatment of Acute Pancreatitis and Neurodegenerative Disorders” (ACS Med Chem Lett, 2015).

In this test the target is Kynurenine 3-monooxygenase (Homo sapiens, UniProt O15229). As to the kind of experiment: Inhibition of kynurenine monooxygenase (unknown origin) by MS rapidfire assay.
Chain of Kynurenine 3-monooxygenase (O15229 whole entry): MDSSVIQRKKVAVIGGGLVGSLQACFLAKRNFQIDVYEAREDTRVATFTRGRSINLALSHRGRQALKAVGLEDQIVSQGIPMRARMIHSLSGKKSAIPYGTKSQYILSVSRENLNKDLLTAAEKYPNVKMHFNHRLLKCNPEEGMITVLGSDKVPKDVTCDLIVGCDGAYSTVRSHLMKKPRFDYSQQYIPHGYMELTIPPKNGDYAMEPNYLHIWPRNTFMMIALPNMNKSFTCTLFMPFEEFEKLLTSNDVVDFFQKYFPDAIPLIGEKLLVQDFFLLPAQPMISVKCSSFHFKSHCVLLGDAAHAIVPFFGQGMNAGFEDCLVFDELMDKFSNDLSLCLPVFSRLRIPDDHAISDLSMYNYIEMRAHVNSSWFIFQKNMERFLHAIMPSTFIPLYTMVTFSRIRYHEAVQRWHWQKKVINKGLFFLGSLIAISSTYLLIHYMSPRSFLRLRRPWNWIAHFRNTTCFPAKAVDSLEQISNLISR

As to `C[C@@H](Oc1cc2oc(=O)n(CCC(=O)O)c2cc1Cl)c1cccnn1`, the IC50 (as a rule, the concentration needed to halve the response being measured) was below 794 nM.
In turn, `Cn1ccnc1COc1cc2oc(=O)n(CCC(=O)O)c2cc1Cl` had a half-inhibitory concentration (IC50) below 794 nM.
